In test [1] the target is 5-hydroxytryptamine receptor 7 (Rattus norvegicus, UniProt P32305). Briefly: Binding affinity at rat 5-hydroxytryptamine 7 receptor.
Test [2] concerns the target 5-hydroxytryptamine receptor 7 (Rattus norvegicus) (UniProt P32305). Briefly: Agonistic activity against rat 5-HT7 adenyl cyclase expressed by HEK293 cells. Format: functional, cell-based.
For test [3] the target is unchanged. Briefly: Agonistic activity against rat 5-HT7 adenyl cyclase expressed in HEK293 cells; Active. Format: functional, cell-based.
The target is the same in test [4]. Particulars: HEK293.

Activity calls are given as the source filed them. The rule behind the calls is not given here.

For orientation: Ki means the dissociation constant of the complex between target and ligand, obtained from inhibition or displacement.

Chain of 5-hydroxytryptamine receptor 7 (Rattus norvegicus) (P32305 whole entry): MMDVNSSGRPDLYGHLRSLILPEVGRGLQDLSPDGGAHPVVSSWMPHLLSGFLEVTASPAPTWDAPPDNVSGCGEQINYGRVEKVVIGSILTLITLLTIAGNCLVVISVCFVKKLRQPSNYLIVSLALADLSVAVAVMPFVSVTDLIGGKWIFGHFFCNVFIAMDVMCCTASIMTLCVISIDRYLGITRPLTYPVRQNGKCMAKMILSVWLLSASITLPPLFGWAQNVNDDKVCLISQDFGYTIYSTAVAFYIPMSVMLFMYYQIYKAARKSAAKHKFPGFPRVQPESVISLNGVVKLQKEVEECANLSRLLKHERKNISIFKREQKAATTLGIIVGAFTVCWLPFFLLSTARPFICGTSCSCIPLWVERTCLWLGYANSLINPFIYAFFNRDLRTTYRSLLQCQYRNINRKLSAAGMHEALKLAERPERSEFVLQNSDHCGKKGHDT
Chain of 5-hydroxytryptamine receptor 7 (P32305 whole entry): as above

As to `CCN(CC)[C@@H]1CCc2cccc(OC)c2C1`, the Ki in test [1] is 87.1 nM. In test [2], this molecule yielded an Increase of 73%.

`COc1ccc2c(c1)CC[C@@H](N)C2`: in test [1], the Ki was 1580 nM. In addition, the Increase in test [2] is 58%. In test [1], `CCCN(CCC)[C@H]1CCc2cccc(OC)c2C1` showed a Ki of 339 nM. The Increase in test [2] turned out to be 99%.

As to `Cc1[nH]c(C)c(-c2cccc3c2CC[C@H](N(C)C)C3)c1C`, in test [1], the Ki is 0.832 nM. In test [3], the Increase entry was “Active”. Regarding `COc1ccc2[nH]cc(CCN)c2c1`, the Increase entry in test [3] was “Active”.

In test [1], `COc1ccc2[nH]cc(CCN3CCCC3)c2c1` showed a Ki of 631 nM. In test [2], this molecule gave an Increase of 39%. Molecule `CN(C)CCc1c[nH]c2ccc(O)cc12` [BUFOTENINE] gave an inhibitory constant (Ki) in test [1] of 7.94 nM. The Increase result in test [3] is “Active”.

Turning to `NCCc1c[nH]c2ccc(O)cc12`, the Increase entry in test [4] is “Active”.

`COc1cccc2c1C[C@H](N)CC2` showed a Ki in test [1] of 123 nM. The Increase in test [2] was determined as 73%. Regarding `COc1ccc2cccc(N3CCNCC3)c2c1`, in test [1], the Ki is 20.4 nM. Further, the Increase in test [2] amounted to 25%. In the case of `CCCN(CCC)[C@@H]1CCc2cccc(OC)c2C1`, the Ki in test [1] was 33.9 nM. In addition, in test [2], the Increase came to 92%. For `COc1ccc2[nH]cc(CCN(C)C)c2c1` [MEBUFOTENIN], the affinity in test [1], expressed as Ki, was 39.8 nM. Moreover, the Increase in test [2] worked out at 92%. On to `CCCN(CCC)[C@@H]1CCc2cccc(O)c2C1`, for which, in test [1], the Ki was 45.7 nM. Besides, the Increase entry in test [3] was “Active”. Regarding `COc1ccccc1N1CCNCC1`, in test [3], the Increase entry was “Active”. On to `Cc1c(NC2=NCCN2)cccc1-c1ccccc1`, for which the Increase entry in test [3] is “Active”. `COc1ccc2[nH]c(C)c(CCN(C)C)c2c1` had a Ki in test [1] of 1120 nM. The molecule further yielded an Increase in test [2] of 17%.

Regarding `NCCc1c[nH]c2ccc(C(N)=O)cc12`, the Increase in test [2] came out at 100%.

Turning to `c1ccc2c(N3CCNCC3)cccc2c1`, the Increase entry in test [3] was “Active”. Consider `CN(C)[C@H]1CCc2c(cccc2-c2cccc3ccccc23)C1`, for which the Ki in test [1] is 0.251 nM. Further, in test [3], the Increase entry is “Active”. In the case of `CCN(CC)C(=O)[C@@H]1C=C2c3cccc4[nH]cc(c34)C[C@H]2N(C)C1`, the Increase result in test [3] is “Active”.

The record behind these values is ChEMBL document CHEMBL1144906, “Characterization of the 5-HT(7) receptor. Determination of the pharmacophore for 5-HT(7) receptor agonism and CoMFA-based modeling of the agonist binding site” (J Med Chem, 2003).
